Target: T1, ShkA (Caulobacter vibrioides, UniProt Q9ABT2)
T1 sequence (Q9ABT2 1-514): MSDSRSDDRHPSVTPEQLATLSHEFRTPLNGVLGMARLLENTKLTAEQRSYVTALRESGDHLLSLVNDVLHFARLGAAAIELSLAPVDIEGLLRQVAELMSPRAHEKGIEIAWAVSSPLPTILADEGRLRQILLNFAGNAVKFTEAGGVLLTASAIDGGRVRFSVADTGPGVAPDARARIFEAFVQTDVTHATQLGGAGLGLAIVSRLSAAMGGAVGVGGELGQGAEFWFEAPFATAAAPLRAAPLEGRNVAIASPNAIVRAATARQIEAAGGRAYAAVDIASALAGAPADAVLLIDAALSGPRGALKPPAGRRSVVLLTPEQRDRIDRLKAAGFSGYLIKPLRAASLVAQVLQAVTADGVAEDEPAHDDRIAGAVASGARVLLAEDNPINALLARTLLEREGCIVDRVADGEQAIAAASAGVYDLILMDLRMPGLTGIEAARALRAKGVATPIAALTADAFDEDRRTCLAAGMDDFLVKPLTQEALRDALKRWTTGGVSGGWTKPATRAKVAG
Experiment: FCA and ITC
Type: biochemical

Ki: ~60 µM
Compound: Nc1ncnc2c1ncn2[C@@H]1O[C@H](COP(=O)(O)OP(=O)(O)O)[C@@H](O)[C@H]1O [ADP]
